PubChem BioAssay (NCI)
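Tested at 5 concentrations; 48 h exposure; 96-well plates; endpoints linearly interpolated, else capped at highest concentration. Here, GI50 denotes the concentration required for 50% inhibition of growth. At the TGI there is no net growth.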

Columns and labels:
Assay in all cases: NCI anticancer screen, dose series, 48 h
[1] = test system: A549 NSCLC
[2] = test system: LOX IMVI melanoma
[3] = test system: TK-10 renal
[4] = test system: T-47D breast
[5] = test system: SF-295 CNS
[6] = test system: MOLT-4 leukemia
[7] = test system: OVCAR-8 ovarian
[8] = test system: SK-OV-3 ovarian
[9] = test system: SK-MEL-28 melanoma

## Cn1cc(-c2ccc3c(Nc4cccc(NC(=O)Nc5cccc(F)c5)c4)ncnc3c2)cn1
[1]
  GI50: 1.85 µM
  TGI: 17.9 µM
[2]
  GI50: 1.55 µM
  TGI: 3.64 µM
[3]
  GI50: 2.72 µM
  TGI: 10.2 µM
[4]
  GI50: 1.62 µM
  TGI: 28.7 µM
[5]
  GI50: 1.81 µM
  TGI: 8.42 µM
[6]
  GI50: 1.95 µM
  TGI: 14.6 µM
[7]
  GI50: 2.25 µM
  TGI: > 100 µM
[8]
  GI50: 0.61 µM
  TGI: 13.1 µM
[9]
  GI50: 1.55 µM
  TGI: 3.08 µM

## CC[C@]1(O)CC(OC2CC(N(C)C)C(O)C(C)O2)c2c(cc3c(c2O)C(=O)c2c(O)cccc2C3=O)[C@@H]1C(=O)OC (stereo partly drawn)
[1]
  TGI: 6.59 µM
[2]
  TGI: 0.635 µM
[3]
  TGI: 5.07 µM
[4]
  TGI: 5.54 µM
[5]
  TGI: 3.31 µM
[6]
  TGI: 0.677 µM
[7]
  TGI: 5.11 µM
[8]
  TGI: 2.18 µM
[9]
  TGI: 3.04 µM

## O=C(Nc1ccc(Cl)c(Cl)c1)c1cccc(NC2=C(Cl)C(=O)N(Cc3ccccc3)C2=O)c1
[1]
  GI50: 42.9 µM
  TGI: > 100 µM
[2]
  GI50: 27 µM
  TGI: > 100 µM
[3]
  GI50: > 100 µM
  TGI: > 100 µM
[4]
  GI50: 61.2 µM
  TGI: > 100 µM
[5]
  GI50: 49.7 µM
  TGI: > 100 µM
[6]
  GI50: 6.36 µM
  TGI: 78.5 µM
[7]
  GI50: 31.6 µM
  TGI: 89.5 µM
[8]
  GI50: > 100 µM
  TGI: > 100 µM
[9]
  GI50: > 100 µM
  TGI: > 100 µM

## CN(Cc1cnc2nc(N)nc(N)c2n1)c1ccc(C(=O)NC(CCC(=O)O)C(=O)O)cc1C(F)(F)F (stereo not drawn)
[1]
  TGI: > 100 µM
[2]
  TGI: > 100 µM
[3]
  TGI: > 100 µM
[4]
  TGI: > 100 µM
[5]
  TGI: > 100 µM
[6]
  TGI: > 100 µM
[7]
  TGI: > 66.7 µM
[8]
  TGI: > 100 µM
[9]
  TGI: > 100 µM

## C/C(=N\NC(=O)c1sc(=S)n(C)c1N)c1cc2ccccc2o1
[1]
  GI50: 7.68 µM
  TGI: 20.2 µM
[2]
  GI50: 7.05 µM
  TGI: 20.1 µM
[3]
  GI50: 15.3 µM
  TGI: 32.7 µM
[4]
  GI50: 18.6 µM
  TGI: > 100 µM
[5]
  GI50: 14.4 µM
  TGI: 30 µM
[6]
  GI50: 3.51 µM
  TGI: 29.1 µM
[7]
  GI50: 15.3 µM
  TGI: 33.8 µM
[8]
  GI50: 20.9 µM
  TGI: 55.6 µM
[9]
  GI50: 21.6 µM
  TGI: > 100 µM

## CCOC(=O)c1c2c(c(O)c3ccccc3c(O)n(Cc3ccc(OC)cc3)c1C)C(=O)C=CC2=O
[1]
  GI50: > 100 µM
  TGI: > 100 µM
[2]
  GI50: > 100 µM
  TGI: > 100 µM
[3]
  GI50: > 100 µM
  TGI: > 100 µM
[4]
  GI50: > 100 µM
  TGI: > 100 µM
[5]
  GI50: > 100 µM
  TGI: > 100 µM
[6]
  GI50: 76 µM
  TGI: > 100 µM
[7]
  GI50: > 100 µM
  TGI: > 100 µM
[8]
  GI50: > 100 µM
  TGI: > 100 µM
[9]
  GI50: > 100 µM
  TGI: > 100 µM

## CCN(CC)CCOCC[C@H]1CC[C@H]2[C@@H]3[C@H](C)Cc4cc(OS(N)(=O)=O)ccc4[C@H]3CC[C@]12C
[1]
  GI50: 1.8 µM
  TGI: 5.58 µM
[2]
  GI50: 1.33 µM
  TGI: 2.77 µM
[3]
  GI50: 1.3 µM
  TGI: 3.34 µM
[4]
  GI50: 0.277 µM
  TGI: 2.94 µM
[5]
  GI50: 0.626 µM
  TGI: 2.14 µM
[6]
  GI50: 1.53 µM
  TGI: 4.31 µM
[7]
  GI50: 2.05 µM
  TGI: 5.67 µM
[8]
  GI50: 1.49 µM
  TGI: 3.2 µM
[9]
  GI50: 1.27 µM
  TGI: 2.53 µM
